# Source: article PMC4301998 (Bioorganic & medicinal chemistry, 2014)
# Read-outs that look alike come from different tables or passages of the source.
# Experiments:
# [1] = system: nine human cancer cell lines and three non-cancerous cell lines; additional colon cancer cells; test: MTT cell survival assay, statements over several cell lines; type: cell-based; settings: for IC50: Homo sapiens
# human PXR = biological target: T1, human PXR (Homo sapiens, UniProt O75469); test: PXR transactivation assay; settings: HepG2 reporter gene assay, 24 hr treatment, vs DMSO; IND-2 at 1 or 10 μM
# T1 sequence (O75469 1-434): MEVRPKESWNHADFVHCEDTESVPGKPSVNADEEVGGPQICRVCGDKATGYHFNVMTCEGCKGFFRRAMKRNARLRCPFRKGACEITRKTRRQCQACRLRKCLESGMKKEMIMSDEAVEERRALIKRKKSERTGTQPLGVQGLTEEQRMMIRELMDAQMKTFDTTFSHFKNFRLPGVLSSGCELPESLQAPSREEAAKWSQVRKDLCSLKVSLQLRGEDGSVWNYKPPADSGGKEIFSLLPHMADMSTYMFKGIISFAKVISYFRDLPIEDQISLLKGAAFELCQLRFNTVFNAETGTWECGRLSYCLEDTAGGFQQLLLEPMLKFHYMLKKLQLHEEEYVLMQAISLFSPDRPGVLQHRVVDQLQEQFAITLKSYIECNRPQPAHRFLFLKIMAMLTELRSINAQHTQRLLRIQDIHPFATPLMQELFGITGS
# HCT-116 cells = test: Chromosomal DNA fragmentation assay; type: cell-based, human; settings: 2.5 μM, 6 hr
# [2] = system: HCT-116 colon cancer cells; test: MTT cell survival assay, HCT-116; type: cell-based; settings: Homo sapiens, HCT-116, read-out: IC50 ± SD, HCT-116
# [3] = system: HEK293/R2 (ABCG2-overexpressing cells); test: MTT cytotoxicity in ABCG2-overexpressing cells; type: cell-based, human; settings: HEK293/R2 vs HEK293/pcDNA3.1, MTT
# [4] = system: HCT-116, HCT-15, and HEK293 cells; test: Morphological analysis by microscopy; type: cell-based, human; settings: 0, 0.5, 2, or 10 μM, 68 hrs of treatment; HCT-116, HCT-15, HEK293
# HepG2 cells = settings: 24 hr, CellTiter-Glo
# HEK293/ABCB1 cells = test: MTT cytotoxicity in ABCB1-overexpressing cells; type: cell-based, human; settings: HEK293/ABCB1 vs HEK293/pcDNA3.1, MTT
# [5] = system: S1-M1-80 cells (G482 mutant ABCG2-overexpressing); test: MTT cytotoxicity in drug-resistant colon cancer cells; type: cell-based, human; settings: S1-M1-80 vs S1, MTT; p < 0.001
smiles,measurement,setting,value
"Cc1cc(=O)n2nc3nc4ccccc4cc3c2[nH]1 [IND-1, 2-Methylpyrimido[1”,2”:1,5]pyrazolo[3,4-b]quinoline-4(1H)-one]",IC50,[1]; read-out: IC50 on the tested cells,> 40000 nM
"Cc1cc(Cl)n2nc3nc4ccccc4cc3c2n1 [IND-2, 4-Chloro-2-methyl pyrimido[1“,2”:1,5]pyrazolo[3,4-b]quinoline]",PXR transactivation of CYP3A4 promoter activity,human PXR,did not affect PXR transactivation
same,IC50,"[1]; DU-145, read-out: IC50 values against prostate cancer cells",800 to 1200 nM
same,IC50,[1]; read-out: IC50 values on colon cancer cells,< 1000 nM
same,selectivity for inhibition of colon cancer cells relative to HEK293 cells,[1]; colon cancer cells vs HEK293,10-15 fold
same,selectivity relative to NIH/3T3 mouse fibroblast cells and MDCK cells,[1]; colon cancer cells vs NIH/3T3 and MDCK,20-40 fold
same,selectivity for colon cancer cells relative to other cancer cells,"[1]; vs breast, ovarian, and hepatocellular carcinoma cells",10-30 fold
same,fragmentation of chromosomal DNA,HCT-116 cells,led to fragmentation of chromosomal DNA
same,IC50,[2],634 ± 120 nM
same,resistance of ABCG2-overexpressing cells,[3],no substantial resistance
same,morphological changes of cells,[4],morphological changes
same,HepG2 cell viability (cytotoxicity),HepG2 cells; 1 μM,non-cytotoxic
same,HepG2 cell viability (cytotoxicity),HepG2 cells; 10 μM,marginally cytotoxic
same,resistance of ABCB1-overexpressing cells,HEK293/ABCB1 cells,no substantial resistance
"Cc1cc(N(C)C)n2nc3nc4ccccc4cc3c2n1 [IND-3, N,N,2-Trimethyl benzopyrido[2’,3’:3,4]pyrazolo[1,5-a]pyrimidin-4-amine]",IC50,[1]; read-out: IC50 values against ovarian and breast cancer cells,44000 to 50000 nM
CCc1c2c(nc3ccc(O)cc13)-c1cc3c(c(=O)n1C2)COC(=O)[C@]3(O)CC [SN-38],resistance of S1-M1-80 cells to the drug,[5],significant resistance
CC[C@@]1(O)C(=O)OCc2c1cc1n(c2=O)Cc2cc3c(CN(C)C)c(O)ccc3nc2-1 [topotecan],resistance of S1-M1-80 cells to the drug,[5],significant resistance
